Like-named read-outs stand apart in the source and are kept apart here.
What was measured:
CHK1 = target: T1, CHK1 (Homo sapiens, UniProt O14757); experiment: CHK1 kinase function inhibition (DELFIA assay, phosphorylation of CDC25C peptide); type: biochemical; conditions: CHK1 1 nM, ATP 30 μM, 30 minutes at room temperature
T1 sequence (O14757 1-476): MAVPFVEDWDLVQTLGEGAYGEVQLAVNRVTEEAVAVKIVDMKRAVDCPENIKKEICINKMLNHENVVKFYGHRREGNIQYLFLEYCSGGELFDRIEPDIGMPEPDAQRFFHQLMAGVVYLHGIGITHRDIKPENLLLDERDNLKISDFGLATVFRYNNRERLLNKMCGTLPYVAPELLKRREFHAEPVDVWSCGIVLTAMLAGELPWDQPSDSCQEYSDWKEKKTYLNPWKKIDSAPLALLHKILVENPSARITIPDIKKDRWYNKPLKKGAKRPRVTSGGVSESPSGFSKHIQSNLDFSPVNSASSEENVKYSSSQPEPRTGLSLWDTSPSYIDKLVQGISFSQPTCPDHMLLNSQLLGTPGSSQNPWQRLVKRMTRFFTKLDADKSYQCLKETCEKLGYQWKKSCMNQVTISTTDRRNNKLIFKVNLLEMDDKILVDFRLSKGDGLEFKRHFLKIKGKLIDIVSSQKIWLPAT

[1] = system: HT29 colon carcinoma cells; experiment: Cytotoxicity assay (SRB); type: cell-based; conditions: Homo sapiens, read-out: SRB IC50 (concentration required to inhibit growth by 50%)
HT29 cells = experiment: Mitosis inhibition assay (MIA), checkpoint abrogation after etoposide; type: cell-based; conditions: Homo sapiens, HT-29, etoposide 50 μM 1 hour, then compound with nocodazole 100 ng/mL, 21 hours, read-out: MIA IC50 (concentration required to allow 50% of cells to enter mitosis)

SMILES	IC50 (CHK1) [µM]	IC50 ([1]; HT-29, 96 h) [µM]	IC50 (HT29 cells) [µM]	IC50 ([1]; HT-29, 96 hours) [µM]
Cn1cnc2cnc(Nc3cnc(C#N)c(OCC4CCNCC4)n3)cc21	≤ 1	–	–	–
N#Cc1ncc(Nc2cc3ccccc3cn2)nc1OCC1CCNCC1 [AA-003]	–	≤ 10	–	–
Clc1cccc2cc(Nc3cncc(OCC4CCNCC4)n3)ncc12 [AA-005]	1 to 10	–	–	–
N#Cc1ncc(Nc2cc3cccc(Cl)c3cn2)nc1OCC1CCNCC1 [AA-006]	–	≤ 10	–	–
N#Cc1ncc(Nc2cc3cccc(Cl)c3cn2)nc1OC1CCCNC1 (centres unmarked) [AA-007]	–	≤ 10	≤ 10	–
N#Cc1ncc(Nc2cc3cccc(Cl)c3cn2)nc1O[C@@H]1CCNC1 [AA-008, (R)-5-(8-Chloroisoquinolin-3-ylamino)-3-(pyrrolidin-3-yloxy)pyrazine-2-carbonitrile]	≤ 1	–	≤ 10	≤ 10
CN1CCCC(COc2nc(Nc3cc4cccc(Cl)c4cn3)cnc2C#N)C1 (centres unmarked) [AA-009]	≤ 1	–	–	–
CC(CN(C)C)Oc1nc(Nc2cc3cccc(Cl)c3cn2)cnc1C#N (centres unmarked) [AA-010]	–	≤ 10	≤ 10	–
COc1cc(OC)c2cnc(Nc3cnc(C#N)cn3)cc2c1 [AA-011, 5-(6,8-Dimethoxyisoquinolin-3-ylamino)pyrazine-2-carbonitrile]	1 to 10	–	–	–
CN1CCC(COc2nc(Nc3cc4cccc(Cl)c4cn3)cnc2C#N)CC1 [AA-014]	≤ 1	–	≤ 10	≤ 10
N#Cc1ncc(Nc2cc3ccccc3cn2)nc1OC1CCCNC1 (centres unmarked) [AA-015]	–	≤ 10	–	–
N#Cc1cnc(Nc2cc3cccc(Br)c3cn2)cn1 [AA-017, 5-(8-Bromoisoquinolin-3-ylamino)pyrazine-2-carbonitrile]	1 to 10	–	–	–
N#Cc1cnc(Nc2cc3cc(Cl)ccc3cn2)cn1 [AA-018, 5-(6-Chloroisoquinolin-3-ylamino)pyrazine-2-carbonitrile]	1 to 10	–	–	–
N#Cc1cnc(Nc2cc3cccc(-c4cc[nH]n4)c3cn2)cn1 [AA-019, 5-(8-(1H-pyrazol-3-yl)isoquinolin-3-ylamino)pyrazine-2-carbonitrile]	1 to 10	–	–	–
N#Cc1cnc(Nc2cc3cccc(NCCN4CCOCC4)c3cn2)cn1 [AA-020, 5-(8-(2-morpholinoethylamino)isoquinolin-3-ylamino)pyrazine-2-carbonitrile]	≤ 1	–	≤ 10	≤ 10
COc1cccc2cc(Nc3cnc(C#N)cn3)ncc12 [AA-021, 5-(8-methoxyisoquinolin-3-ylamino)pyrazine-2-carbonitrile]	1 to 10	–	–	–
C[C@H](CN(C)C)Oc1nc(Nc2cc3ccccc3cn2)cnc1C#N [AA-022]	–	≤ 10	≤ 10	–
C[C@H](CN(C)C)Oc1nc(Nc2cc3cccc(Cl)c3cn2)cnc1C#N [AA-023]	–	≤ 10	≤ 10	–
Cc1cccc2cc(Nc3cnc(C#N)cn3)ncc12 [AA-024]	1 to 10	–	–	–
Cc1cccc2cc(Nc3cnc(C#N)c(OC(C)CN(C)C)n3)ncc12 (centres unmarked) [AA-025]	≤ 1	–	≤ 10	≤ 10

SMILES	IC50 (CHK1) [µM]	IC50 ([1]; HT-29, 96 h) [µM]	IC50 (HT29 cells) [µM]	IC50 ([1]; HT-29, 96 hours) [µM]
CC(CN(C)C)Oc1nc(Nc2cc3cccc(Br)c3cn2)cnc1C#N (centres unmarked) [AA-026]	≤ 1	–	≤ 10	≤ 10
N#Cc1cnc(Nc2cc3cccc(NCCCN4CCOCC4)c3cn2)cn1 [AA-027]	≤ 1	–	≤ 10	≤ 10
N#Cc1ncc(Nc2cc3cccc(NCCCN4CCOCC4)c3cn2)nc1OCC1CC1 [AA-028]	≤ 1	–	–	–
N#Cc1ncc(Nc2cc3cccc(NCCN4CCOCC4)c3cn2)nc1OCC1CCOC1 (centres unmarked) [AA-029]	≤ 1	–	≤ 10	–
COc1nc(Nc2cc3cccc(NCCN4CCOCC4)c3cn2)cnc1C#N [AA-030]	≤ 1	–	≤ 10	–
N#Cc1cnc(Nc2cc3cccc(NCCO)c3cn2)cn1 [AA-031, 5-(8-(2-Hydroxyethylamino)isoquinolin-3-ylamino)pyrazine-2-carbonitrile]	≤ 1	–	≤ 10	≤ 10
CC(CN(C)C)Oc1nc(Nc2cc3cccc(NCCO)c3cn2)cnc1C#N (centres unmarked) [AA-032]	≤ 1	–	≤ 10	≤ 10
N#Cc1cnc(Nc2cc3cccc(NCCCO)c3cn2)cn1 [AA-033]	≤ 1	–	≤ 10	≤ 10
COCCCNc1cccc2cc(Nc3cnc(C#N)cn3)ncc12 [AA-035]	≤ 1	–	≤ 10	–
COCCNc1cccc2cc(Nc3cnc(C#N)cn3)ncc12 [AA-036]	≤ 1	–	≤ 10	–
COCCNc1cccc2cc(Nc3cnc(C#N)c(O[C@H](C)CN(C)C)n3)ncc12 [AA-039]	–	–	≤ 10	≤ 10
COc1nc(Nc2cc3cccc(NCCO)c3cn2)cnc1C#N [AA-042]	≤ 1	–	–	–
N#Cc1ncc(Nc2cc3cccc(NCCO)c3cn2)nc1OCC1CC1 [AA-045]	≤ 1	–	–	–
CC(C)CCOc1nc(Nc2cc3cccc(NCCO)c3cn2)cnc1C#N [AA-046]	1 to 10	–	–	–
N#Cc1ncc(Nc2cc3cccc(NCCO)c3cn2)nc1OCC1CCOC1 (centres unmarked) [AA-047]	1 to 10	–	–	–
COc1nc(Nc2cc3ccccc3cn2)cnc1C#N [AA-048]	≤ 1	–	–	–
CC(=O)Nc1cccc2cc(Nc3cnc(C#N)cn3)ncc12 [AA-062, N-(3-(5-Cyanopyrazin-2-ylamino)isoquinolin-8-yl)acetamide]	≤ 1	–	–	–
COCCC(=O)Nc1cccc2cc(Nc3cnc(C#N)cn3)ncc12 [AA-063, N-(3-(5-Cyanopyrazin-2-ylamino)isoquinolin-8-yl)-3-methoxypropanamide]	1 to 10	–	–	–
CC(=O)Nc1cccc2cc(Nc3cnc(C#N)c(O[C@H](C)CN(C)C)n3)ncc12 [AA-064]	≤ 1	–	–	–
COCCNC(=O)c1cccc2cc(Nc3cnc(C#N)c(OC(C)CN(C)C)n3)ncc12 (centres unmarked) [AA-066]	1 to 10	–	≤ 10	–

SMILES	IC50 (CHK1) [µM]	IC50 ([1]; HT-29, 96 h) [µM]	IC50 (HT29 cells) [µM]	IC50 ([1]; HT-29, 96 hours) [µM]
CCOC(=O)COc1nc(Nc2cc3ccccc3cn2)cnc1C#N [AA-068, Ethyl 2-(3-cyano-6-(isoquinolin-3-ylamino)pyrazin-2-yloxy)acetate]	1 to 10	–	–	–
N#Cc1ncc(Nc2cc3ccccc3cn2)nc1OCC(=O)O [AA-069, 2-(3-Cyano-6-(isoquinolin-3-ylamino)pyrazin-2-yloxy)acetic acid]	1 to 10	–	–	–
N#Cc1cnc(Nc2cc3c(Br)ccc(Cl)c3cn2)cn1 [AA-070, 5-(5-Bromo-8-chloroisoquinolin-3-ylamino)pyrazine-2-carbonitrile]	1 to 10	–	–	–
C[C@H](C[N+](C)(C)[O-])Oc1nc(Nc2cc3cccc(Cl)c3cn2)cnc1C#N [AA-071, (R)-2-(6-(8-Chloroisoquinolin-3-ylamino)-3-cyanopyrazin-2-yloxy)-N,N-dimethylpropan-1-amine oxide]	≤ 1	–	≤ 10	–
N#Cc1ncc(Nc2cc3cccc(F)c3cn2)nc1O[C@@H]1CCNC1 [AA-072]	≤ 1	–	≤ 10	–
N#Cc1cnc(Nc2cc3[nH]c(C4CC4)nc3cn2)cn1 [BB-001, 5-(2-Cyclopropyl-1H-imidazo[4,5-c]pyridin-6-ylamino)pyrazine-2-carbonitrile]	1 to 10	–	–	–
N#Cc1cnc(Nc2cc3[nH]c(-c4ccc(N5CCNCC5)cc4)nc3cn2)cn1 [BB-006]	1 to 10	–	–	–
N#Cc1cnc(Nc2cc3[nH]c(CCC4CCNCC4)nc3cn2)cn1 [BB-011]	≤ 1	–	–	–
c1nc2cnc(Nc3cncc(OCC4CCNCC4)n3)cc2[nH]1 [BB-013]	1 to 10	–	–	–
N#Cc1cnc(Nc2cc3c(cn2)ncn3CCN)cn1 [BB-019, 5-(1-(2-Aminoethyl)-1H-imidazo[4,5-c]pyridin-6-ylamino)pyrazine-2-carbonitrile]	1 to 10	–	–	–
N#Cc1cnc(Nc2cc3c(cn2)ncn3CC2CCCNC2)cn1 (centres unmarked) [BB-020, 5-(1-(Piperidin-3-ylmethyl)-1H-imidazo[4,5-c]pyridin-6-ylamino)pyrazine-2-carbonitrile]	1 to 10	–	–	–
N#Cc1cnc(Nc2cc3c(cn2)ncn3[C@H]2CCCNC2)cn1 [BB-021, (S)-5-(1-(Piperidin-3-yl)-1H-imidazo[4,5-c]pyridin-6-ylamino)pyrazine-2-carbonitrile]	≤ 1	–	–	–
N#Cc1cnc(Nc2cc3c(cn2)ncn3C2CCNCC2)cn1 [BB-022, 5-(1-(Piperidin-4-yl)-1H-imidazo[4,5-c]pyridin-6-ylamino)pyrazine-2-carbonitrile]	1 to 10	–	–	–
N#Cc1cnc(Nc2cc3c(cn2)ncn3[C@@H]2CCCNC2)cn1 [BB-023, (R)-5-(1-(Piperidin-3-yl)-1H-imidazo[4,5-c]pyridin-6-ylamino)pyrazine-2-carbonitrile]	1 to 10	–	–	–
CC(CN(C)C)Oc1nc(Nc2cc3[nH]cnc3cn2)cnc1C#N (centres unmarked) [BB-024, 5-(3H-Imidazo[4,5-c]pyridin-6-ylamino)-3-(1-(dimethylamino)propan-2-yloxy)pyrazine-2-carbonitrile]	≤ 1	–	–	–
CN1CCCC(Oc2nc(Nc3cc4[nH]cnc4cn3)cnc2C#N)C1 (centres unmarked) [BB-025]	≤ 1	–	–	–
CN1CCCC(COc2nc(Nc3cc4[nH]cnc4cn3)cnc2C#N)C1 (centres unmarked) [BB-026]	≤ 1	–	–	–
N#Cc1ncc(Nc2cc3[nH]cnc3cn2)nc1O[C@@H]1CCNC1 [BB-027]	≤ 1	–	–	–
N#Cc1cnc(Nc2cc3cc[nH]c3cn2)cn1 [CC-001, 5-(1H-Pyrrolo[2,3-c]pyridin-5-ylamino)pyrazine-2-carbonitrile]	1 to 10	–	–	–

Reference: patent US8530468B2 (Cancer Research Technology Limited, priority 2008, dated 2013)
